Test results published in PubChem BioAssay AID2060509 (Molecular Pharmacology Branch, DTP, NCI, 2025).

System: 485176-168-R4-J1-PDC spheroids with HUVEC/MSC, viability
Test: Anticancer human tumor 485176-168-R4-J1-PDC patient-derived pancreatic adenocarcinoma cell line growth inhibition [GQUAD]
Conditions: for IC50: curve of first compound; for viability, T/C: stronger effect = lower value
Summary of the method: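 Multi-cell-type spheroids of tumor cells with HUVEC and mesenchymal stem cells, treated with drug combinations. Concentrations descend in half-log steps from near clinical Cmax, or from 10 microM where Cmax is unknown; viability read-out.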

[1] = second compound 0.0316 µM, first compound 0.0316 µM
[2] = second compound 0.0316 µM, first compound 0.1 µM
[3] = second compound 0.0316 µM, first compound 0.316 µM
[4] = second compound 0.0316 µM, first compound 1 µM
[5] = second compound 0.0316 µM, first compound 3.16 µM
[6] = second compound 0.0316 µM, first compound 10 µM
[7] = second compound 0.1 µM, first compound 0.0316 µM
[8] = second compound 0.1 µM, first compound 0.1 µM
[9] = second compound 0.1 µM, first compound 0.316 µM
[10] = second compound 0.1 µM, first compound 1 µM
[11] = second compound 0.1 µM, first compound 3.16 µM
[12] = second compound 0.1 µM, first compound 10 µM
[13] = second compound 0.316 µM, first compound 0.0316 µM
[14] = second compound 0.316 µM, first compound 0.1 µM
[15] = second compound 0.316 µM, first compound 0.316 µM
[16] = second compound 0.316 µM, first compound 1 µM
[17] = second compound 0.316 µM, first compound 3.16 µM
[18] = second compound 0.316 µM, first compound 10 µM
[19] = second compound 1 µM, first compound 0.0316 µM
[20] = second compound 1 µM, first compound 0.1 µM
[21] = second compound 1 µM, first compound 0.316 µM
[22] = second compound 1 µM, first compound 1 µM
[23] = second compound 1 µM, first compound 3.16 µM
[24] = second compound 1 µM, first compound 10 µM
[25] = second compound 3.16 µM, first compound 0.0316 µM
[26] = second compound 3.16 µM, first compound 0.1 µM
[27] = second compound 3.16 µM, first compound 0.316 µM
[28] = second compound 3.16 µM, first compound 1 µM
[29] = second compound 3.16 µM, first compound 3.16 µM
[30] = second compound 3.16 µM, first compound 10 µM
[31] = second compound 10 µM, first compound 0.0316 µM
[32] = second compound 10 µM, first compound 0.1 µM
[33] = second compound 10 µM, first compound 0.316 µM
[34] = second compound 10 µM, first compound 1 µM
[35] = second compound 10 µM, first compound 3.16 µM
[36] = second compound 10 µM, first compound 10 µM
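Note: spheroids exposed to compounds for seven days before readout.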
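Throughout, for viability, T/C: percent viability relative to DMSO vehicle control wells as 100%.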

SMILES: CC1COCCN1c1cc(C2(O)CC3CCC(C2)O3)c2cnn(-c3ccn[nH]3)c2n1 (stereo unspecified) + CN(C)c1ccc(Nc2c3ccc(NC(=O)CCN4CCCC4)cc3nc3cc(NC(=O)CCN4CCCC4)ccc23)cc1
- IC50 (second compound 0.0316 µM): 101 nM
- IC50 (second compound 0.1 µM): 120 nM
- IC50 (second compound 0.316 µM): 98.5 nM
- IC50 (second compound 1 µM): 91 nM
- IC50 (second compound 3.16 µM): 125 nM
- IC50 (second compound 10 µM): 99.6 nM
- viability, T/C [1]: 79.4%
- viability, T/C [2]: 49.7%
- viability, T/C [3]: 25.9%
- viability, T/C [4]: 9.43%
- viability, T/C [5]: 12%
- viability, T/C [6]: 7.83%
- viability, T/C [7]: 66%
- viability, T/C [8]: 56.1%
- viability, T/C [9]: 16.4%
- viability, T/C [10]: 9.58%
- viability, T/C [11]: 11.2%
- viability, T/C [12]: 8.08%
- viability, T/C [13]: 70.3%
- viability, T/C [14]: 49.6%
- viability, T/C [15]: 23%
- viability, T/C [16]: 10.9%
- viability, T/C [17]: 9.72%
- viability, T/C [18]: 8.92%
- viability, T/C [19]: 80.3%
- viability, T/C [20]: 47.1%
- viability, T/C [21]: 21.6%
- viability, T/C [22]: 9.7%
- viability, T/C [23]: 10.3%
- viability, T/C [24]: 8.64%
- viability, T/C [25]: 72.2%
- viability, T/C [26]: 54.2%
- viability, T/C [27]: 30%
- viability, T/C [28]: 10.4%
- viability, T/C [29]: 11.8%
- viability, T/C [30]: 7.71%
- viability, T/C [31]: 67.1%
- viability, T/C [32]: 50.2%
- viability, T/C [33]: 21.1%
- viability, T/C [34]: 11.6%
- viability, T/C [35]: 9.48%
- viability, T/C [36]: 6.52%

SMILES: COc1cccc2c1C(=O)c1c(O)c3c(c(O)c1C2=O)CC(O)(C(=O)CO)CC3OC1CC(N)C(O)C(C)O1 (stereo unspecified) + CN(C)c1ccc(Nc2c3ccc(NC(=O)CCN4CCCC4)cc3nc3cc(NC(=O)CCN4CCCC4)ccc23)cc1
- IC50 (second compound 0.0316 µM): 271 nM
- IC50 (second compound 0.1 µM): 263 nM
- IC50 (second compound 0.316 µM): 417 nM
- IC50 (second compound 1 µM): 412 nM
- IC50 (second compound 3.16 µM): 396 nM
- IC50 (second compound 10 µM): 305 nM
- viability, T/C [1]: 104%
- viability, T/C [2]: 65.5%
- viability, T/C [3]: 59.2%
- viability, T/C [4]: 15.4%
- viability, T/C [5]: 3.54%
- viability, T/C [6]: 0.22%
- viability, T/C [7]: 95.2%
- viability, T/C [8]: 70.9%
- viability, T/C [9]: 49.2%
- viability, T/C [10]: 17.8%
- viability, T/C [11]: 2.43%
- viability, T/C [12]: 0.16%
- viability, T/C [13]: 84.9%
- viability, T/C [14]: 67%
- viability, T/C [15]: 62%
- viability, T/C [16]: 22.5%
- viability, T/C [17]: 3.97%
- viability, T/C [18]: 0.2%
- viability, T/C [19]: 99.5%
- viability, T/C [20]: 78.2%
- viability, T/C [21]: 64.1%
- viability, T/C [22]: 17.4%
- viability, T/C [23]: 4.15%
- viability, T/C [24]: 0.16%
- viability, T/C [25]: 84.2%
- viability, T/C [26]: 83.2%
- viability, T/C [27]: 53.4%
- viability, T/C [28]: 25.7%
- viability, T/C [29]: 2.96%
- viability, T/C [30]: 0.21%
- viability, T/C [31]: 72.2%
- viability, T/C [32]: 68.4%
- viability, T/C [33]: 48.5%
- viability, T/C [34]: 22.9%
- viability, T/C [35]: 5.36%
- viability, T/C [36]: 0.33%

SMILES: Cc1[nH]c2ccccc2c1CCNCc1ccc(/C=C/C(=O)NO)cc1 + Cc1cnc(CNC(=O)c2c(=O)c3ccc(N4CCCN(C)CC4)nc3n3c2sc2ccccc23)cn1
- IC50 (second compound 0.0316 µM): 94 nM
- IC50 (second compound 0.1 µM): 39.2 nM
- IC50 (second compound 0.316 µM): 11 nM
- IC50 (second compound 1 µM): < 0.999 nM
- IC50 (second compound 3.16 µM): < 0.999 nM
- IC50 (second compound 10 µM): < 0.999 nM
- viability, T/C (second compound 0.0316 µM, first compound 0.000999 µM): 99.4%
- viability, T/C (second compound 0.0316 µM, first compound 0.00316 µM): 74.4%
- viability, T/C (second compound 0.0316 µM, first compound 0.00999 µM): 85.6%
- viability, T/C [1]: 60.5%
- viability, T/C (second compound 0.0316 µM, first compound 0.0999 µM): 57.5%
- viability, T/C [3]: 12.1%
- viability, T/C (second compound 0.1 µM, first compound 0.000999 µM): 74.5%
- viability, T/C (second compound 0.1 µM, first compound 0.00316 µM): 89.6%
- viability, T/C (second compound 0.1 µM, first compound 0.00999 µM): 49.4%
- viability, T/C [7]: 51.7%
- viability, T/C (second compound 0.1 µM, first compound 0.0999 µM): 44.3%
- viability, T/C [9]: 9.46%
- viability, T/C (second compound 0.316 µM, first compound 0.000999 µM): 63.3%
- viability, T/C (second compound 0.316 µM, first compound 0.00316 µM): 59.6%
- viability, T/C (second compound 0.316 µM, first compound 0.00999 µM): 53.5%
- viability, T/C [13]: 35.3%
- viability, T/C (second compound 0.316 µM, first compound 0.0999 µM): 27.2%
- viability, T/C [15]: 6.34%
- viability, T/C (second compound 1 µM, first compound 0.000999 µM): 44.6%
- viability, T/C (second compound 1 µM, first compound 0.00316 µM): 52.6%
- viability, T/C (second compound 1 µM, first compound 0.00999 µM): 45.4%
- viability, T/C [19]: 30.7%
- viability, T/C (second compound 1 µM, first compound 0.0999 µM): 23.8%
- viability, T/C [21]: 0.94%
- viability, T/C (second compound 3.16 µM, first compound 0.000999 µM): 47.2%
- viability, T/C (second compound 3.16 µM, first compound 0.00316 µM): 39.2%
- viability, T/C (second compound 3.16 µM, first compound 0.00999 µM): 45%
- viability, T/C [25]: 33.1%
- viability, T/C (second compound 3.16 µM, first compound 0.0999 µM): 14%
- viability, T/C [27]: 0.27%
- viability, T/C (second compound 10 µM, first compound 0.000999 µM): 36.2%
- viability, T/C (second compound 10 µM, first compound 0.00316 µM): 37.5%
- viability, T/C (second compound 10 µM, first compound 0.00999 µM): 32.5%
- viability, T/C [31]: 26.5%
- viability, T/C (second compound 10 µM, first compound 0.0999 µM): 11.1%
- viability, T/C [33]: 0.69%
